Data reported in PubChem BioAssay (NCI).
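Five concentrations, 48 hours, 96-well plates. At the GI50, growth is halved. At the TGI there is no net growth.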

How the values were obtained:
Assay in all cases: NCI tumour cell line growth inhibition, 48 h
MDA-MB-468 breast = tested on: MDA-MB-468 breast
786-0 renal = tested on: 786-0 renal
A498 renal = tested on: A498 renal
A549 NSCLC = tested on: A549 NSCLC
ACHN renal = tested on: ACHN renal
BT-549 breast = tested on: BT-549 breast
CAKI-1 renal = tested on: CAKI-1 renal
CCRF-CEM leukemia = tested on: CCRF-CEM leukemia
COLO 205 colon = tested on: COLO 205 colon
DU-145 prostate = tested on: DU-145 prostate
EKVX NSCLC = tested on: EKVX NSCLC
HCC-2998 colon = tested on: HCC-2998 colon
HCT-116 colon = tested on: HCT-116 colon
HCT-15 colon = tested on: HCT-15 colon
HL-60(TB) leukemia = tested on: HL-60(TB) leukemia
HOP-62 NSCLC = tested on: HOP-62 NSCLC
HOP-92 NSCLC = tested on: HOP-92 NSCLC
HS 578T breast = tested on: HS 578T breast
HT29 colon = tested on: HT29 colon
IGROV1 ovarian = tested on: IGROV1 ovarian
K-562 leukemia = tested on: K-562 leukemia
KM12 colon = tested on: KM12 colon
LOX IMVI melanoma = tested on: LOX IMVI melanoma
M14 melanoma = tested on: M14 melanoma
MALME-3M melanoma = tested on: MALME-3M melanoma
MCF7 breast = tested on: MCF7 breast
MDA-MB-231 breast = tested on: MDA-MB-231 breast
MDA-MB-435 = tested on: MDA-MB-435
MOLT-4 leukemia = tested on: MOLT-4 leukemia
NCI-H226 lung = tested on: NCI-H226 lung
NCI-H23 lung = tested on: NCI-H23 lung
NCI-H460 lung = tested on: NCI-H460 lung
NCI-H522 lung = tested on: NCI-H522 lung
OVCAR-3 ovarian = tested on: OVCAR-3 ovarian
OVCAR-4 ovarian = tested on: OVCAR-4 ovarian
OVCAR-5 ovarian = tested on: OVCAR-5 ovarian
OVCAR-8 ovarian = tested on: OVCAR-8 ovarian
PC-3 prostate = tested on: PC-3 prostate
RPMI-8226 leukemia = tested on: RPMI-8226 leukemia
RXF 393 renal = tested on: RXF 393 renal
SF-268 CNS = tested on: SF-268 CNS
SF-295 CNS = tested on: SF-295 CNS
SF-539 CNS = tested on: SF-539 CNS
SK-MEL-2 melanoma = tested on: SK-MEL-2 melanoma
SK-MEL-28 melanoma = tested on: SK-MEL-28 melanoma
SK-MEL-5 melanoma = tested on: SK-MEL-5 melanoma
SN12C renal = tested on: SN12C renal
SNB-19 CNS = tested on: SNB-19 CNS
SNB-75 CNS = tested on: SNB-75 CNS
SR leukemia = tested on: SR leukemia
T-47D breast = tested on: T-47D breast
TK-10 renal = tested on: TK-10 renal
U251 CNS = tested on: U251 CNS
UO-31 renal = tested on: UO-31 renal

## Cc1nc2cc(Nc3nc(Nc4ccc(F)cc4)nc(N4CCCC4)n3)ccc2n1Cc1ccccc1
MDA-MB-468 breast
  GI50: 1.61 µM
  TGI: 3.48 µM

## CCN(CC)CC(O)c1cc(-c2ccc(Cl)cc2)nc2cc(Cl)ccc12 (centres undefined)
MDA-MB-468 breast
  GI50: 1.92 µM
  TGI: 3.53 µM

## COC1/C=C/OC2(C)Oc3c(C)c(O)c4c(O)c(c(C=NOC(c5ccccc5)c5ccccc5)c(O)c4c3C2=O)NC(=O)/C(C)=C/C=C/C(C)C(O)C(C)C(O)C(C)C(OC(C)=O)C1C (centres undefined)
MDA-MB-468 breast
  GI50: 1.05 µM
  TGI: 2.78 µM

## CNC(=O)c1cc(Oc2cccc3nc(NC(=O)Nc4ccc(F)cc4F)ccc23)ccn1
MDA-MB-468 breast
  GI50: 1.83 µM
  TGI: > 50 µM

## COc1cccc(/C=C2\CCc3ccccc3C2=O)c1
MDA-MB-468 breast
  GI50: 12.6 µM
  TGI: 29.3 µM

## Cc1ccnc(NC(c2ccccc2)c2ccc3cccnc3c2O)c1 (centres undefined)
MDA-MB-468 breast
  GI50: 3.25 µM
  TGI: 14.3 µM

## O=[N+]([O-])c1cccc([I+]c2ccccc2)c1
MDA-MB-468 breast
  GI50: 2.1 µM
  TGI: 17.4 µM

## COc1cc(OC)c(/C=C/C(=O)c2c(O)cc(OC)c(C3CCN(C)CC3)c2OC)c(OC)c1
MDA-MB-468 breast
  GI50: 1.54 µM
  TGI: 3.03 µM

## Nc1nc(Cl)nc2c1ncn2C1OC(CO)C(O)C1O (centres undefined)
MDA-MB-468 breast
  GI50: > 100 µM
  TGI: > 100 µM

## O=C1Nc2c(ccc(Cl)c2Cl)/C1=C\c1cc(C(F)(F)F)cc(C(F)(F)F)c1
MDA-MB-468 breast
  GI50: 1.51 µM
  TGI: 5.6 µM

## CNC(=O)c1cc(Oc2ccc3nc(NC(=O)Nc4cc(C(F)(F)F)cc(C(F)(F)F)c4)sc3c2)ccn1
MDA-MB-468 breast
  GI50: 0.399 µM
  TGI: 1.75 µM

## O=C(Nc1nc(-c2ccccc2Cl)cs1)c1cc(-c2ccc(Cl)cc2)nc2ccc(Cl)cc12
MDA-MB-468 breast
  GI50: 5.6 µM
  TGI: 79.6 µM

## Oc1[nH]c2ccccc2c1/C=c1/ccc2c(c1)N=C(c1cc(F)cc(F)c1)N=2
MDA-MB-468 breast
  GI50: 2.62 µM
  TGI: 8.64 µM

## C=C(C)[C@@H]1CC[C@]2(C(=O)N3CCN(C)CC3)CC[C@]3(C)[C@H](CC[C@@H]4[C@@]5(C)CC[C@H](O)C(C)(C)[C@@H]5CC[C@]43C)[C@@H]12
MDA-MB-468 breast
  GI50: 1.82 µM
  TGI: 3.63 µM

## CS(=O)(=O)c1ccc(-c2cnc(NCc3ccco3)n3cnnc23)cc1
MDA-MB-468 breast
  GI50: 27 µM
  TGI: > 100 µM

## COc1ccc(/C=C/C(=O)c2ccccc2)cc1OC
MDA-MB-468 breast
  GI50: 5.25 µM
  TGI: 18.6 µM

## O=C1c2ccccc2-c2ccccc2C1(Cl)Cl
MDA-MB-468 breast
  GI50: 1.74 µM
  TGI: 3.3 µM

## COc1ccc(Nc2ncccc2C(=O)NCc2cn(Cc3cccc(Oc4ccccc4)c3)nn2)c(OC)c1
MDA-MB-468 breast
  GI50: 0.77 µM

## O=C(Nc1ccc(Cl)cc1)c1cc2ccccc2cc1OP(=O)(O)O
MDA-MB-468 breast
  GI50: 4.28 µM
  TGI: 29.3 µM

## Clc1ccc(Nc2ncnc3c2sc2ncccc23)c(Cl)c1
MDA-MB-468 breast
  GI50: 0.0548 µM
  TGI: 73.8 µM

## COc1ccc2c(c1)C(=O)c1c-2c(OCCN2CCCCC2)nc2ccc(OC)cc12
MDA-MB-468 breast
  GI50: 0.392 µM
  TGI: 2.49 µM

## Cc1cc2nc3c4cc([N+](=O)[O-])ccc4n(CCN(C)C)c3nc2cc1C
MDA-MB-468 breast
  GI50: 0.374 µM
  TGI: 1.38 µM

## COC(=O)C[Se]C(=O)Cc1c(C)n(C(=O)c2ccc(Cl)cc2)c2ccc(OC)cc12
MDA-MB-468 breast
  GI50: 1.47 µM
  TGI: 4 µM

## Cn1cc(-c2ccc3nnc(C(F)(F)c4ccc5ncccc5c4)n3n2)cn1
MDA-MB-468 breast
  GI50: 22.5 µM
  TGI: > 100 µM

## CCN(CC)CCNC(=O)C(Cl)=C1C(Cl)=C(Cl)C(Cl)=C1Cl
MDA-MB-468 breast
  GI50: 2.08 µM
  TGI: 7.63 µM

## COC[C@@H](CC(C)C)N=C1NC(=O)/C(=C/c2ccc3ncoc3c2)N1
786-0 renal
  GI50: 5.31 µM
  TGI: > 100 µM
A498 renal
  GI50: 1.34 µM
  TGI: 6.88 µM
A549 NSCLC
  GI50: 2.65 µM
  TGI: > 100 µM
ACHN renal
  GI50: 2.89 µM
  TGI: > 100 µM
BT-549 breast
  GI50: 2.44 µM
  TGI: 11.4 µM
CAKI-1 renal
  GI50: 2.59 µM
  TGI: > 100 µM
CCRF-CEM leukemia
  GI50: 2.6 µM
  TGI: 9.93 µM
COLO 205 colon
  GI50: 2.23 µM
  TGI: 8.06 µM
DU-145 prostate
  GI50: 3.74 µM
  TGI: > 100 µM
EKVX NSCLC
  GI50: 3.55 µM
  TGI: > 100 µM
HCC-2998 colon
  GI50: 7.43 µM
  TGI: > 100 µM
HCT-116 colon
  GI50: 2.13 µM
  TGI: > 100 µM
HCT-15 colon
  GI50: 2.43 µM
  TGI: > 100 µM
HL-60(TB) leukemia
  GI50: 3.48 µM
  TGI: 23.4 µM
HOP-62 NSCLC
  GI50: 2.89 µM
  TGI: > 100 µM
HOP-92 NSCLC
  GI50: 2.58 µM
  TGI: 9.48 µM
HS 578T breast
  GI50: 2.31 µM
  TGI: 9.22 µM
HT29 colon
  GI50: 4.3 µM
  TGI: 24.1 µM
IGROV1 ovarian
  GI50: 2.73 µM
  TGI: > 100 µM
K-562 leukemia
  GI50: 2.92 µM
  TGI: > 100 µM
KM12 colon
  GI50: 3.39 µM
  TGI: > 100 µM
LOX IMVI melanoma
  GI50: 2.87 µM
  TGI: > 100 µM
M14 melanoma
  GI50: 5.64 µM
  TGI: > 100 µM
MALME-3M melanoma
  GI50: 3.06 µM
  TGI: 50.5 µM
MCF7 breast
  GI50: 2.69 µM
  TGI: > 100 µM
MDA-MB-231 breast
  GI50: 5.64 µM
  TGI: > 100 µM
MDA-MB-435
  GI50: 4.33 µM
  TGI: > 100 µM
MDA-MB-468 breast
  GI50: 1.35 µM
  TGI: 6.99 µM
MOLT-4 leukemia
  GI50: 4.27 µM
  TGI: > 100 µM
NCI-H226 lung
  GI50: 2.18 µM
  TGI: > 100 µM
NCI-H23 lung
  GI50: 2.21 µM
  TGI: 8.75 µM
NCI-H460 lung
  GI50: 2.67 µM
  TGI: > 100 µM
NCI-H522 lung
  GI50: 2.13 µM
  TGI: 8.52 µM
OVCAR-3 ovarian
  GI50: 1.08 µM
  TGI: 4.69 µM
OVCAR-4 ovarian
  GI50: 10.2 µM
  TGI: > 100 µM
OVCAR-5 ovarian
  GI50: 3.52 µM
  TGI: > 100 µM
OVCAR-8 ovarian
  GI50: 2.88 µM
  TGI: > 100 µM
PC-3 prostate
  GI50: 5.72 µM
  TGI: > 100 µM
RPMI-8226 leukemia
  GI50: 3.19 µM
  TGI: > 100 µM
RXF 393 renal
  GI50: 2.72 µM
  TGI: 9.18 µM
SF-268 CNS
  GI50: 3.65 µM
  TGI: 57.3 µM
SF-295 CNS
  GI50: 3.65 µM
  TGI: > 100 µM
SF-539 CNS
  GI50: 0.618 µM
  TGI: 7.11 µM
SK-MEL-2 melanoma
  GI50: 1.93 µM
  TGI: 4.36 µM
SK-MEL-28 melanoma
  GI50: 2.66 µM
  TGI: 8.79 µM
SK-MEL-5 melanoma
  GI50: 2.44 µM
  TGI: 12 µM
SN12C renal
  GI50: 3.12 µM
  TGI: > 100 µM
SNB-19 CNS
  GI50: 1.99 µM
  TGI: > 100 µM
SNB-75 CNS
  GI50: 0.0317 µM
  TGI: 4.01 µM
SR leukemia
  GI50: 2.87 µM
  TGI: > 100 µM
T-47D breast
  GI50: 2.2 µM
  TGI: 9.96 µM
TK-10 renal
  GI50: 3.24 µM
  TGI: > 100 µM
U251 CNS
  GI50: 2.72 µM
  TGI: > 100 µM
UO-31 renal
  GI50: 2.67 µM
  TGI: 35.3 µM

## O=C(NC(Cc1ccccc1)C(=O)CCl)OCc1ccccc1 (centres undefined)
MDA-MB-468 breast
  GI50: 3.69 µM
  TGI: 15.4 µM

## COC1=CC(c2ccc[nH]2)=N/C1=C\c1[nH]c(C)c(C)c1CCC(=O)OCc1ccccc1
MDA-MB-468 breast
  GI50: 1.51 µM
  TGI: 5.31 µM

## Cc1ccc(S(=O)(=O)NCCCNc2nc(Nc3ccc(N4CCN(C)CC4)cc3)nc3ccsc23)cc1
MDA-MB-468 breast
  GI50: 7.43 µM
  TGI: 20.6 µM

## N/C(=N\C(N)=N\c1nc2ccccc2s1)c1ccnc(Br)c1
MDA-MB-468 breast
  GI50: 17.5 µM
  TGI: > 100 µM

## CCOC(=O)Nc1cc(-c2ccc(C)c(NS(C)(=O)=O)c2)nn2c(C)nnc12
MDA-MB-468 breast
  GI50: 0.557 µM
  TGI: 4.21 µM

## CC/C(=C(/CC)c1ccc(O)cc1)c1ccc(O)cc1
MDA-MB-468 breast
  GI50: 2.71 µM
  TGI: 15.1 µM
